From patent US20120178738A1, “DIBENZO [B,F] [1,4]OXAZAPINE COMPOUNDS” (ARYX THERAPEUTICS, INC., priority 2007, published 2012)
pIC50: −log10 of the molar value.

How the values were obtained:
[1] = test system: NMDA antagonist-induced deficits in prepulse inhibition in rats; test: Prepulse inhibition (PPI), NMDA antagonist (PCP)-induced deficit; conditions: ip 45 min before, PCP 1.5 mg/kg s.c.
human D2S receptor = biological target: T1, human D2S receptor (Homo sapiens, UniProt P14416); test: Adenylyl cyclase (HitHunter cAMP XS) assay in HEK 293 cells expressing human D2S; assay type: cell-based
T1 construct: host or cells: HEK 293 cells

catalepsy in mice = test: Catalepsy mouse model; assay type: in vivo; conditions: up to 30 mg/kg, IP
Experimental: A catalepsy mouse model was used to investigate a potential side effect of antipsychotic agents.
The catalepsy methodology used herein has been adapted from Tada, M. et al. ((2004). Psychopharmacol., 176, 94-100) as well as Wang et al. ((2000). J. Neurosci., 20, 8305-8314).
The animals (Swiss Webster, female, about 20 g; Charles River) were administered compounds of the invention (1 μg/kg-30 mg/kg ip). Twenty seven minutes after test compound injection, the mice's forepaws were placed on a horizontal steel bar (diameter 0.2 cm), elevated 3-5 cm above the tabletop and the time taken for the animals to remove both paws was recorded for up to 2 min.

T1 sequence (P14416 1-414 isoform P14416-2): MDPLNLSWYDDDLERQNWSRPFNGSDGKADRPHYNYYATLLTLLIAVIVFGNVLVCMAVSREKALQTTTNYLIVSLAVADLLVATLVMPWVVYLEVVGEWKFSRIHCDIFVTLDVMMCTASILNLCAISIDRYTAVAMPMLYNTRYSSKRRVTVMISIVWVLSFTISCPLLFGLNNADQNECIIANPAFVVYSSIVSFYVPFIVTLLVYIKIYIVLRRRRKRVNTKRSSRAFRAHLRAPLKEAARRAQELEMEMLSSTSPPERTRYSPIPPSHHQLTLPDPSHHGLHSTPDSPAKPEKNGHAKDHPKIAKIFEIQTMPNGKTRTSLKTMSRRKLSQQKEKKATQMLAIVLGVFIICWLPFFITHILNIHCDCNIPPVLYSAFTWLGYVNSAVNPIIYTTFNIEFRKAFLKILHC

Row | SMILES | NMDA antagonist-induced deficits in prepulse inhibition [1] | functional activity at human D2S receptor (human D2S receptor; HEK 293 cells, 27 μM forskolin (agonist) or plus 30 nM dopamine (antagonist)) | pIC50 (human D2S receptor; adenylyl cyclase assay, human D2S receptor, read-out: estimated IC50) | catalepsy (catalepsy in mice)
1 | O=C(O)C[C@H]1CN(C2=Nc3cc(Cl)ccc3Oc3ccccc32)CCN1 [Compound Q, (S,E)-2-(4-(8-chlorodibenzo[b,f][1,4]oxazepin-11-yl)piperazin-2-yl)acetic acid] | Restore |  |  | 
2 | CCOC(=O)C[C@H]1CN(C2=Nc3cc(Cl)ccc3Oc3ccccc32)CCN1 [Compound K, (S,E)-ethyl 2-(4-(8-chlorodibenzo[b,f][1,4]oxazepin-11-yl)piperazin-2-yl)acetate] | Restore | partial D2 receptor agonist and a D2 receptor antagonist | 4.89 | did not cause catalepsy
